# Entries after “also recorded” stand apart in the source; their conditions may differ.
# Experiments:
# [1] = test system: CFTR-EGFP; experiment: Subcellular distribution of CFTR-EGFP by confocal microscopy; type: cell-based, hamster; settings: BHK cells, Lindane 24 h, NH4Cl 5 mM in medium
# Method: BHK-21 (Baby hamster kidney epithelial cells, ATCC) stably expressing CFTR-EGFP cell-line was maintained in Dulbecco's modified Eagle's medium (DMEM, GIBCO) containing 10% fetal calf serum (GIBCO).
# Autophagy was induced either by starvation or by treatment with Lindane under nutrient-rich condition. For Lindane treatment, cells were serum-starved for 2-16 hours in DMEM/Ham's F12 (1:1, GIBCO #61965-026: F12 GIBCO #31765-027) supplemented with either 1% Insulin-Transferrin-SeleniumA (GIBCO #51300-044) or 0.1% bovine serum albumin (A7030, Sigma) and treated with Lindane (50 µM, Sigma, H4500).
# [2] = target: CFTR Cl^- channel (Mus musculus, UniProt P26361); experiment: Whole-cell patch-clamp Cl- currents in Sertoli cells; type: cell-based; parameters: endogenous in cells; host or cells: Sertoli 42GPA9 cell line (mouse)
# Chain of CFTR Cl^- channel (Mus musculus, UniProt P26361) (P26361 whole entry): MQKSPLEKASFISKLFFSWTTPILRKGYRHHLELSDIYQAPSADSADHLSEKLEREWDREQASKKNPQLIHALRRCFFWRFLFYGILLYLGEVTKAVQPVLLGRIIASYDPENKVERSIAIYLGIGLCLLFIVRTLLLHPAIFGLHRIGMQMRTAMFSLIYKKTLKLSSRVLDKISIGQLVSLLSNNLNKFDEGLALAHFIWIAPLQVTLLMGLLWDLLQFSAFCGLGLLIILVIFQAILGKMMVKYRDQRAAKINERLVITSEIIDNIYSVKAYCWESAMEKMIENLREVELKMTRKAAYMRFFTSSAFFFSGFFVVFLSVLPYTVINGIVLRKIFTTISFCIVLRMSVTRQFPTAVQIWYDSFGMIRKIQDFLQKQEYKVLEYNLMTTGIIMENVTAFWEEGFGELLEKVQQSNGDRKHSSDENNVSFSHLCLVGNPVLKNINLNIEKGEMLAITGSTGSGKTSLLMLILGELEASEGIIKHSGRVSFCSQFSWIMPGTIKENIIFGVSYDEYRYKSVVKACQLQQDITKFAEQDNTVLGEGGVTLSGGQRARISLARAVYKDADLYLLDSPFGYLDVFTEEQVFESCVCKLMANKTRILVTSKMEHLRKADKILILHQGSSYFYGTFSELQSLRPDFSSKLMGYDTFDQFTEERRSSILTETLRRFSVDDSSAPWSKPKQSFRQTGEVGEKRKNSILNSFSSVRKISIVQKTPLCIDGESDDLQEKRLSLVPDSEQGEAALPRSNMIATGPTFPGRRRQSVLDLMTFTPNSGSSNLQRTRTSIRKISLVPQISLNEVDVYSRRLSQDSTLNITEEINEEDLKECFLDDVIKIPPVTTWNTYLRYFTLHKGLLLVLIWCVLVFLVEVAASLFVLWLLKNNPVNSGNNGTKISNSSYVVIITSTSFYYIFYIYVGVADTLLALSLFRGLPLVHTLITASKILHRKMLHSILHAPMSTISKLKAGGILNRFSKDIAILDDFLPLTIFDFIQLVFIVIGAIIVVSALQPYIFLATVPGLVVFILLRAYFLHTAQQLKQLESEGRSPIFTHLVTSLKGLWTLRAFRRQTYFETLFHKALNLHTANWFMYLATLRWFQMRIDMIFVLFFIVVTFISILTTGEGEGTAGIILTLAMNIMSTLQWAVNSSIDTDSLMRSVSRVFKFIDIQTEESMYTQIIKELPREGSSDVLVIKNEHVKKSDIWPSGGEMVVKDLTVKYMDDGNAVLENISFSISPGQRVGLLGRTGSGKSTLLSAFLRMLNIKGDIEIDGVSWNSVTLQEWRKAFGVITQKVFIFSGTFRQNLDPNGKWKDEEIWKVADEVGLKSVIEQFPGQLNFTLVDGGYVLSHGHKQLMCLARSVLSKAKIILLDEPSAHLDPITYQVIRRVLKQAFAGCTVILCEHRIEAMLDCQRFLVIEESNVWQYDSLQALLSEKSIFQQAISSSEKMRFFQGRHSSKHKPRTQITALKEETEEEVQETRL
# Method: Whole cell currents were monitored from Sertoli cells, CFTR^-/- and WT renal epithelial cells with an RK 400 amplifier (Biologic, Münster, Germany) as previously described (40). The bath (extracellular) solution consisted of 140 mM NMDGCl (N-methyl-D-glucamine chloride), 5 mM D-Glucose, 1 mM CaCl2, and 10 mM HEPES, pH 7.4. Patch pipette (intracellular) solution contained 140 mM NMDGCl, 5 mM D-Glucose, 5 mM EGTA, 5 mM MgATP, and 10 mM HEPES, pH 7.4. Osmolarity of both solutions was adjusted to 280 mOSM by adding mannitol. These solutions were designed to study Cl^- currents because Cl^- is the sole permeant ion in these conditions and to prevent Ca^2+ activated Cl^- currents by the addition of EGTA in the patch solution. After establishment of whole cell configuration, cells were stimulated by the addition of Lindane (50 µM), FSK (10 µM), vehicle (Me2S0 or ethanol) in the absence or the presence of NPPB (0.1mM), DIDS (4,4'-diisothiocyanatostilbene-2,2'-disulfonic acid, 1 mM, Sigma), glibenclamide (0.1mM, Sigma) or PD98059 (10 µM) in the bath solution. The cell membrane potential was clamped at -50mV and 400 ms pulses were applied from -100 to +120 mV with increments of 20 mV every 2 s. To generate whole cell current-voltage (I-V) relationship, membrane currents resulting from voltage stimuli were recorded for at least 3 min and analysed using an IBM-AT-compatible computer equipped with Digidata 1200 interface (Axon Instruments) and pCLAMP software (versions 5.51 and 6.0, Axon Instruments), respectively. Statistics-Results are expressed as mean ± S.E. of n observations using the Student's t test.
# [3] = test system: renal cells; experiment: Lindane-induced autophagic vacuolation of renal cells (electron microscopy); type: cell-based, mouse
# Method: (§1) To address the importance of CFTR in autophagy, renal cells derived from distal tubules or the proximal convoluted tubules of Wild type (WT or CFTR^+/+) or CFTR deficient (CFTR^-/-) mice (40) were isolated and immortalized with the pSV3 neo vector, as described below (55).
# The ultrastructural changes caused by Lindane or starvation in Sertoli and renal cells were analysed by transmission electron microscopy, as previously described (57). Briefly, control and Lindane-treated cells (50 µM, 24 h) were scraped from the culture dish in PBS EDTA 1mM, pelleted and fixed with ice-cold 2.5% glutaraldehyde (TAAB, #G004) in 0.1 M Na cacodylate, pH 7.4 for at least 1 h at 4°C. Cell pellets were then rinsed in cacodylate buffer, postfixed in 1% OsO4 for 1 h at 4°C, dehydrated through graded ethanol washes, and embedded in epoxy resin. Oriented […] sections were obtained with diamond knives, and representative areas were chosen for ultra-thin sectioning. Thin […] sections were mounted on copper mesh grids, stained with uranyl acetate and lead citrate, and examined on a JEOL 1200 EXII electron microscope. 30-50 micrographs were taken randomly from each sample at primary magnification × 10,000.
# [4] = test system: CFTR Cl^- channel; experiment: Whole-cell patch-clamp Cl- currents in CFTR+/+ and CFTR-/- renal distal cells; type: cell-based, mouse
# Excerpt: as §1
# Whole cell currents were monitored from Sertoli cells, CFTR^-/- and WT renal epithelial cells with an RK 400 amplifier (Biologic, Münster, Germany) as previously described (40). The bath (extracellular) solution consisted of 140 mM NMDGCl (N-methyl-D-glucamine chloride), 5 mM D-Glucose, 1 mM CaCl2, and 10 mM HEPES, pH 7.4. Patch pipette (intracellular) solution contained 140 mM NMDGCl, 5 mM D-Glucose, 5 mM EGTA, 5 mM MgATP, and 10 mM HEPES, pH 7.4. Osmolarity of both solutions was adjusted to 280 mOSM by adding mannitol. […] To generate whole cell current-voltage (I-V) relationship, membrane currents resulting from voltage stimuli were recorded for at least 3 min and analysed using an IBM-AT-compatible computer equipped with Digidata 1200 interface (Axon Instruments) and pCLAMP software (versions 5.51 and 6.0, Axon Instruments), respectively. Statistics-Results are expressed as mean ± S.E. of n observations using the Student's t test.
# [5] = test system: p38; experiment: p38 / Jun kinase activation by Western blotting of Sertoli cell lysates; type: cell-based, mouse; settings: Anisomycin 10 µg/ml, 15 min; phosphorylation of p38 and MK2
# Excerpt: (§2) After stripping, equal loadings of proteins were verified by reprobing the blots with anti-ERK1 (Santa Cruz Biotechnology).
# [6] = test system: p42^ERK2 and p44^ERK1; experiment: ERK activation by anti-phospho-ERK Western blotting of cell lysates; type: cell-based, mouse
# Excerpt: as §2
# [7] = test system: PKA; experiment: CREB phosphorylation as readout of PKA activity; type: cell-based
# Excerpt: The emerging issue is therefore how Lindane could activate CFTR Cl^- currents. One possibility would be that Lindane directly activates CFTR, but this appears unlikely because it required minutes instead of seconds to increase Cl^- conductance. […] To further explore this hypothesis, we tested the effect of Lindane on the renal proximal cell line (PCT1). […] Of particular interest, we provide several lines of evidence that the CFTR Δex10 channels remained functional in response to Lindane in PCT cells. […] These finding provide the first evidence that an agonist, e.g. Lindane, could activate CFTR Cl- current independently of PKA, raising the promise for new strategies using Lindane to restore Cl-conductance in cystic fibrosis patients with CFTR variants on PKA sites.
structure (smiles),measurement,setting,value
"Cl[C@H]1[C@H](Cl)[C@@H](Cl)[C@@H](Cl)[C@H](Cl)[C@H]1Cl [Lindane, γ-hexachlorocyclohexane]",distribution of CFTR,[1],redistributed from plasma membrane to vacuoles
same,anion selectivity sequence of induced currents,[2],Br^-≥ Cl^->>I^-
same,Cl^- conductance across plasma membrane,[2]; Lindane 50 µM,increased within minutes
same,reversal potential of induced currents,[2]; symmetrical Cl- solutions,~ 0 mV
same,autophagic vacuolation in CFTR-expressing renal cells,[3]; CFTR^+/+ renal cells,"could be generalized to renal cells, provided CFTR was expressed"
same,response in renal cells lacking CFTR expression,[3]; CFTR^-/- renal cells,dramatic accumulation of lamellar structures and little if any large autophagic vacuoles
same,induction of Cl^- currents in CFTR^+/+ renal distal cells,[4]; Lindane 50 µM,induction of Cl^- currents
same,reversed potential of induced currents,"[4]; renal distal cells, n = 8",~ 0 mV
same,effect on Anisomycin-induced p38 activity,[5],not ascribed to p38 inhibition
same,ERK stimulation in CFTR^-/- cells,[6]; CFTR^-/- renal cells,still stimulated
same,duration of ERK activation,"[6]; Sertoli cells, Lindane",more than 24 h
same,ERK activation in Sertoli cells,"[6]; Sertoli cells, Lindane 50 µM, DDT 1.8 µM, Bϕ 90 µM, PCP 15 µM",rapid and sustained activation of both p42^ERK2 and p44^ERK1; also recorded: induced the activation of both p42^ERK2 and p44^ERK1
same,CREB phosphorylation,[7]; Lindane treatment,dramatic phosphorylation of CREB
same,PKA activation,[7]; concluded from H89 experiment,did not activate PKA
